In general, IC50 refers to the concentration that inhibits the measured activity by half. The CC50 is the concentration at which the toxic effect on the cells reaches its halfway point. Low readings indicate harm at low concentration, high ones better tolerance by the cells. As usually defined, the IC90 is the concentration needed for an effect of 90%.

“Also recorded” adds a separate entry of the source. Like-named read-outs stand apart in the source and are kept apart here.

This note sets out measurements from publication PMC11013284, “Chemoselective Synthesis and Anti-Kinetoplastidal Properties of 2,6-Diaryl-4H-tetrahydro-thiopyran-4-one S-Oxides: Their Interplay in a Cascade of Redox Reactions from Diarylideneacetones” (Molecules, 2024).

The nature of data set [1]: Solubility observations (crystals in assay, insolubility in solvents). It counts as physicochemical. The conditions noted are these: for presence of crystals, concentration range / presence of crystals (asterisk mark): noted in L. donovani assay, Table S5; for solubility (observation): almost all types of solvent, even at very low concentrations.
In data set [2] the test system is WT LV9 L. donovani intramacrophage amastigotes. In words: L. donovani intramacrophage amastigote assay. It counts as cell-based, Leishmania donovani. The conditions noted are these: for IC50: WT LV9, ± SD in Tables S5/S6, read-out: IC50 L. donovani intramacrophage amastigotes; for IC99 ± SD LV9 intramacrophage amastigotes / IC90: Table S6; for IC90: read-out: IC90 ± SD LV9 intramacrophage amastigotes.

For data set [3], the system named is human diploid embryonic lung fibroblast hMRC-5SV2 cells. Description: in vitro. As for the experimental part: (§1) The cytotoxicity of compounds was evaluated toward human diploid embryonic lung fibroblast hMRC-5SV2 cells, derived from fetal lung tissue and first described in 1970. hMRC-5SV2 cells were cultured in 96-well plates with five concentrations of the compound (64, 16, 4, 1, and 0.25 μM). After 3 days of incubation, the cell viability was assessed fluorimetrically after the addition of resazurin, and fluorescence was measured (λex = 550 nm, λem = 590 nm). The results were expressed as a percentage reduction in cell growth/viability compared to control wells, and a 50% cytotoxic concentration (CC50) was calculated. The reference cytotoxic drugs were tamoxifen or ivermectin. Additionally, toxicity toward mouse macrophages was qualitatively observed. Three concentrations were included (64, 16, and 4 µM), and the range of toxicity was ranked from the least toxic to the most toxic compound.

For data set [4], the system named is L. infantum (MHOM/MA(BE)/67) amastigotes in primary peritoneal mouse macrophages. In words: L. infantum intramacrophage amastigote assay (microscopic burden). It counts as cell-based, Leishmania infantum. The conditions noted are these: 5 days, mouse macrophages as host. As for the experimental part:
L. infantum (MHOM/MA(BE)/67 strain) amastigote were incubated for 5 days in 96-well plates with five concentrations of compound (64, 16, 4, 1, and 0.25 μM). Primary peritoneal mouse macrophages were used as host cells. Parasite burdens (i.e., the number of amastigotes per macrophage) were microscopically assessed. The results were expressed as a percentage reduction in parasite burden compared to untreated control wells, and an IC50 was calculated.

Data set [5] has as its system Trypanosoma brucei brucei trypomastigotes, suramin-sensitive strain (Squib 427). In words: T. b. brucei growth/viability assay (resazurin). Type of data set: cell-based. Particulars: for IC50: 3 days. As for the experimental part: After 3 days, parasite growth was assessed fluorimetrically following the addition of resazurin. After 24 h at 37 °C, fluorescence was measured (λex = 550 nm, λem = 590 nm). The results were expressed as a percentage reduction in parasite growth/viability compared to control wells, and a 50% inhibitory concentration (IC50) was calculated.

Data set [6] relates to Trypanosoma cruzi (Tulahuen CL2 β-galactosidase) amastigotes in hMRC-5SV2 cells. In words: T. cruzi intracellular amastigote assay (β-galactosidase/CPRG). It counts as cell-based. As for the experimental part:
A nifurtimox-sensitive strain (Tulahuen CL2 β-galactosidase) in human lung fibroblast hMRC-5SV2 cells was incubated for 7 days in 96-well plates with five concentrations of compound (64, 16, 4, 1, and 0.25 μM). The parasitic burden was evaluated through the activity of the enzyme β-galactosidase on a specific chlorophenol red ß-D-galactopyranoside (CPRG) substrate. Live parasites converted the yellow-orange CPRG substrate into the red chromophore chlorophenol red, yielding a dark-red solution, which could be quantitatively measured at 540 nm after 4 h of incubation at 37 °C. The results were expressed as a percentage reduction in parasite growth/viability compared to control wells, and an IC50 was calculated.

In data set [7] the test system is L. donovani LV9 axenic amastigotes. Description: L. donovani axenic amastigote assay (SYBR green I). Type of data set: cell-based, Leishmania donovani. Particulars: for IC50: LV9, read-out: IC50 ± SD L. donovani axenic amastigotes; for IC99 ± SD LV9 axenic amastigotes / IC90: Table S6; for IC90: read-out: IC90 ± SD LV9 axenic amastigotes. As for the experimental part: L. donovani amastigote forms were suspended to yield 10^7 cells/mL. The final compound concentrations used were 100 µM, 10 µM, 1 µM, 500 nM, and 50 nM. Duplicates were used for each concentration. Cultures were incubated at 37 °C for 72 h in the dark and under a 5% CO2 atmosphere; then, the viability of the amastigotes was assessed using the SYBR® green I (Invitrogen, France) incorporation method. Parasite growth was determined by using SYBR® Green I, a dye with marked fluorescence enhancement upon contact with parasite DNA. Parasites were lysed following Direct PCReCell Genotyping without DNA isolation protocol (Euromedex, Souffelweyersheim, France). A total of […] of SYBR Green I was added to each well, and the contents were mixed. Fluorescence was measured with Mastercylcer® ep realplex (Eppendorf, Montesson, France). The fluorescence obtained was compared to those from the range obtained with different parasite densities.

Another data set can be described thus: in vitro. Particulars: human, CC50 hMRC-5 (cytotoxicity). As for the experimental part:
as §1

A further data set concerns murine macrophages. Description: Qualitative toxicity toward mouse macrophages. The conditions noted are these: concentration at which toxicity was observed; 64, 16 and 4 µM tested. As for the experimental part: as §1
Where [8] appears, read: bracketed value after the intramacrophage IC50 (Table S5), Table S6.
The mark [9] stands for this setting: intracellular amastigotes, 7 days, read-out: IC50 T. cruzi intramacrophage amastigotes (converted).
The mark [10] stands for this setting: Trypanosoma cruzi, TULAHUEN, 168 h, intracellular amastigotes, 7 days, read-out: IC50 T. cruzi intramacrophage amastigotes (converted).
[11] abbreviates: Leishmania infantum, Macrophage, 120 h.

For `O=C1CC(c2ccccc2)SC(c2ccccc2)C1` (racemic) [2a], in data set [1], the “presence of crystals, concentration range” value is 6.25 to 200 µM. In the data set with macrophages (setting [8]), the “observed macrophage death / lysis observed at” value stood at 200 µM. Moreover, the 50% inhibitory concentration (IC50) in [2] was greater than 100 µM.
Regarding `Cc1ccccc1C1CC(=O)CC(c2ccccc2C)S1` (racemic) [2b], in data set [3], the CC50 is greater than 64 µM. Also, the “presence of crystals (asterisk mark)” value in data set [1] is reported as “** (presence of crystals at > 100 µM)”. The IC50 in data set [4] is 43.1 µM; in data set [5], greater than 64 µM; in data set [6] (setting [9]), no less than 64 µM; in data set [2] it was 14.5 ± 1.9 µM. Besides, the “observed macrophage death / lysis observed at” value in the data set on macrophages (setting [8]) is given as greater than 50 µM.
Consider `Cc1ccc(C2CC(=O)CC(c3ccc(C)cc3)S2)cc1` (racemic) [2c], for which it took 24.2 µM to reach half-maximal cytotoxicity in [3] (CC50). Also, the “presence of crystals (asterisk mark)” value in data set [1] is listed as “** (presence of crystals at > 100 µM)”. Besides, the IC50 in data set [4] is greater than 64 µM; in data set [5], 0.8 µM; in data set [6] (setting [9]), 3.7 µM; in [2], 13.5 ± 2.8 µM. Further, in the data set with macrophages (setting [8]), the “observed macrophage death / lysis observed at” value is 200 µM.
`O=C1CC(c2ccc(Cl)cc2)SC(c2ccc(Cl)cc2)C1` (racemic) [2f]: in data set [3], the CC50 was greater than 64 µM. Further, the “presence of crystals (asterisk mark)” value in [1] is given as “* (presence of crystals at > 50 µM)”. For the same molecule, the IC50 in [4] was 33.2 µM; in data set [5], 27.4 µM; in [6] (setting [9]), greater than 64 µM; in data set [2], 16.1 ± 1.4 µM. In addition, the “observed macrophage death / lysis observed at” value in the data set with macrophages (setting [8]) was greater than 75 µM.
On to `CN(C)c1ccc([C@H]2CC(=O)C[C@H](c3ccc(N(C)C)cc3)S2)cc1` (racemic) [2u], for which the IC50 is 57.5 ± 10.2 µM in [7]; 43.1 µM in data set [4]; 1.5 µM in [5]; 2.5 µM in [6] (setting [9]); 4.5 ± 10 µM in data set [2]. Also, the “IC99 ± SD LV9 axenic amastigotes” value in data set [7] is on record as 91.1 ± 16.2 µM. In addition, the concentration for an effect of 90% (IC90) in data set [7] is 71.7 ± 12.7 µM; in [2] it was 5.6 ± 12.5 µM. The 50% cytotoxic concentration (CC50) in data set [3] stood at 5 µM. For the same molecule, the “observed macrophage death / lysis observed at” value in the data set on macrophages (setting [8]) was 100 µM. In addition, in [2], the “IC99 ± SD LV9 intramacrophage amastigotes” value was determined as 7.1 ± 15.9 µM.
Consider `COc1ccc(C2CC(=O)CC(c3ccc(OC)cc3)S2(=O)=O)cc1` (racemic) [4d, (±)-trans-2,6-Di-(p-anisyl)-4H-tetrahydrothiopyran-4-one 1,1-dioxide], for which, in the data set “in vitro”, the cytotoxic concentration (CC50) at 3 days was no less than 64 µM. The “solubility (observation)” value in data set [1] is “Solubility issues; also recorded: insolubility”. Also, the IC50 was no less than 64 µM in [4], 43.3 µM in data set [5], no less than 64 µM in [6] (setting [10]) and greater than 100 µM in data set [2] (Leishmania donovani). Moreover, the “anti-trypanosomal activity (IC50)” value in [5] (Trypanosoma (T. cruzi and T. b. brucei)) is “almost inactive; also recorded: completely inactive”.
The molecule `O=C(/C=C/c1ccccc1)/C=C/c1ccccc1` [1a] came in with a CC50 at 3 days in “in vitro” of 52.9 µM. In addition, the “presence of crystals, concentration range” value in [1] fell in the range of 12.5 to 200 µM. The IC50 is 20.3 µM in [4] (setting [11]); 0.4 µM in data set [5] (Trypanosoma brucei, 72 h); 16 µM in data set [6] (Trypanosoma cruzi, TULAHUEN, 168 h, read-out: IC50 T. cruzi intramacrophage amastigotes); greater than 100 µM in data set [2] (Leishmania donovani). Moreover, the “observed macrophage death / lysis observed at” value with macrophages is 200 µM.
In turn, `Cc1ccc(/C=C/C(=O)/C=C/c2ccc(C)cc2)cc1` [1c] showed a CC50 at 3 days in the data set “in vitro” of 32.5 µM. The “presence of crystals, concentration range” value in data set [1] was in the range of 25 to 100 µM. Also, the IC50 is greater than 64 µM in data set [4] (setting [11]); 9.3 µM in data set [5] (Trypanosoma brucei, 72 h); 41.9 µM in data set [6] (setting [10]).
`O=C(/C=C/c1c(Cl)cccc1Cl)/C=C/c1c(Cl)cccc1Cl` [1h] gave a cytotoxic concentration (CC50) at 3 days in “in vitro” greater than 64 µM. Moreover, the “presence of crystals, concentration range” value in [1] fell in the range of 0.8 to 200 µM. For the same molecule, the IC50 in data set [4] (setting [11]) is 32.5 µM; in [5] (Trypanosoma brucei, 72 h), greater than 64 µM; in data set [6] (setting [10]) it was 39.5 µM. In addition, in the data set with macrophages, the “observed macrophage death / lysis observed at” value is given as greater than 6.2 µM. Also, the “Toxicity (T) observed toward murine macrophages” value in the data set on murine macrophages is “T1 (T1 = 64)”.
With `CN(C)c1ccc(/C=C/C(=O)/C=C/c2ccc(N(C)C)cc2)cc1` [1u], the IC50 was 8.7 ± 0.6 µM in data set [7] (Leishmania donovani); greater than 64 µM in [4] (setting [11]); 0.8 µM in data set [5] (Trypanosoma brucei, 72 h); 36.9 µM in data set [6] (setting [10]); 6.3 ± 0.8 µM in data set [2] (Leishmania donovani). The values for the concentration for an effect of 90% (IC90) in data set [7] (Leishmania donovani) and in [2] (Leishmania donovani) were 64.2 ± 0.7 µM and 7.8 ± 1 µM, respectively. Besides, the “IC99 ± SD LV9 axenic amastigotes” value in data set [7] stood at 567.3 ± 0.9 µM. The same molecule had a CC50 at 3 days in “in vitro” of 62.3 µM. Moreover, in the data set with macrophages, the “observed macrophage death / lysis observed at” value came out at 200 µM. The “IC99 ± SD LV9 intramacrophage amastigotes” value in [2] came out at 9.9 ± 1.3 µM.
With `COc1ccc(/C=C/C(=O)/C=C/c2ccccc2)cc1` [1’h], the “presence of crystals (asterisk mark)” value in data set [1] was “** (presence of crystals at > 100 µM)”. Besides, the “observed macrophage death / lysis observed at” value with macrophages (setting [8]) is greater than 37.5 µM. For the same molecule, the IC50 in [2] came to 17.4 ± 1.9 µM.
For `COc1ccc(/C=C/C(=O)/C=C/c2ccc3ccccc3c2)cc1` [1’j], in that order: “** (presence of crystals at > 100 µM)”, greater than 150 µM and 58.2 ± 8 µM.
Molecule `CN(C)c1ccc(/C=C/C(=O)/C=C/c2nccs2)cc1` [1’s] returned a 50% cytotoxic concentration (CC50) in data set [3] greater than 64 µM. In addition, the “presence of crystals (asterisk mark)” value in [1] was “* (presence of crystals at > 50 µM)”. The IC50 in data set [4] was 38 µM; in data set [5] it was 0.4 µM; in data set [6] (setting [9]), 11 µM; in data set [2], 11.5 ± 0.6 µM. In addition, in the data set with macrophages (setting [8]), the “observed macrophage death / lysis observed at” value is recorded as greater than 37.5 µM.
For the molecule `COc1ccc(C2CC(=O)CC(c3ccc(OC)cc3)S2(=O)=O)cc1` (stereo not drawn) [4′d, cis-2,6-Di-(p-anisyl)-4H-tetrahydrothiopyran-4-one 1,1-dioxide], the CC50 in data set [3] (human, 3 days) was no less than 64 µM. Moreover, the “solubility (observation)” value in data set [1] is recorded as “insolubility”; in data set [1] (listed as 4’d) it was “Solubility issues”. Also, the figures for the 50% inhibitory concentration (IC50) in data set [4], in data set [5] and in [6] (setting [9]) were 20.3 µM, 2.1 µM and 34.4 µM, respectively. For the same molecule, in the data set with murine macrophages, the “Toxicity (T) observed toward murine macrophages” value is on record as “T1 (T1 = 64)”.
